Source: patent publication US9676754B2, “Triazolone compounds and uses thereof” (Inception 2, Inc., priority 2012, dated 2017)
Read-outs that look alike come from different tables or passages of the source.

How the values were obtained:
PPAR beta/delta = biological target: T1, PPAR beta/delta (Homo sapiens, UniProt Q03181); assay: Target selectivity counterscreen, PPAR β/δ reporter assay; assay type: cell-based; conditions: receptor agonist at ~EC80
T1 construct: host or cells: engineered reporter cells of the kit (analogous to the human PPARα kit)
T1 sequence (Q03181 1-441): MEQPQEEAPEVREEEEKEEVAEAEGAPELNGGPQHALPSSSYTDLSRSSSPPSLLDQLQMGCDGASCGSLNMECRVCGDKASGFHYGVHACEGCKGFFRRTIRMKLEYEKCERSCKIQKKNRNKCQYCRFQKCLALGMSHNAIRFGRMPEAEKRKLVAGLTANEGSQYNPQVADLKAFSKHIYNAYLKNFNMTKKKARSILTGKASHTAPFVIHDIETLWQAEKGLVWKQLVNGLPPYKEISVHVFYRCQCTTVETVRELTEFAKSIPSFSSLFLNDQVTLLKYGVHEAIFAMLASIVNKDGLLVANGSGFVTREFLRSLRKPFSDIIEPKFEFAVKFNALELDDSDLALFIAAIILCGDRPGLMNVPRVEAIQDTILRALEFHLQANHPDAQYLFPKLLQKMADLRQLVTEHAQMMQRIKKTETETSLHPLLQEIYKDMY
Description: (§1) Target Selectivity Assays
(§2) To determine species selectivity, a Mouse PPARα Reporter Assay System was used (Indigo Biosciences, Cat. #M00111). Activity of test compounds to antagonize or agonize other isoforms of human PPAR, for example β/δ and γ, were assessed using the corresponding kits from Indigo Biosciences (Cat. #IB00121 and #IB00101, respectively). In addition to PPAR activity, compounds were also screened for activity against other nuclear hormone receptors including Estrogen Receptor β, Glucocorticoid Receptor and Thyroid Receptor β using commercially available kits (Indigo Biosciences, Cat. #IB00411, IB00201 and IB01101, respectively). Each assay system from Indigo Biosciences uses technology analogous to the human PPARα kit, with the variance being that the cells used for each assay were engineered to over-express the receptor of interest. In addition, the appropriate receptor agonist (included with each kit) was used at ˜EC80 for assays in which antagonist potency was being assessed.

Human PPARα = biological target: T2, Human PPARα (Homo sapiens, UniProt Q07869); assay: Human PPARα Reporter Assay (luciferase); assay type: cell-based
T2 construct: host or cells: proprietary non-human mammalian cells
T2 sequence (Q07869 1-468): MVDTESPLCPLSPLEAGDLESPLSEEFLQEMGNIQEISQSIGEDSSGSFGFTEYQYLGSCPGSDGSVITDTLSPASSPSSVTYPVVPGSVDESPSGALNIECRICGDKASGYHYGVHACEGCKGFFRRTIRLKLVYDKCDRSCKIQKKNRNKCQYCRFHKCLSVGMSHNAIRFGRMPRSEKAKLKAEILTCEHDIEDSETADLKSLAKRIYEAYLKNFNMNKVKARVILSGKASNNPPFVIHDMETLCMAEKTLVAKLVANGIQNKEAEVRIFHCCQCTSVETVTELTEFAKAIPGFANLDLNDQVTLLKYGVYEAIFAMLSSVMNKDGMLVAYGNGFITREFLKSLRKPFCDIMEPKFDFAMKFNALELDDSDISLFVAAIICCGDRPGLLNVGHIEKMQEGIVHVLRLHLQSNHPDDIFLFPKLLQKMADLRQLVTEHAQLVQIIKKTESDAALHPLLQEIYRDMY
Description: Human PPARα Reporter Assay
The screening of test compounds for agonist or antagonist activities against human PPARα receptors was performed using a commercial kit, Human PPARα Reporter Assay System (Indigo Biosciences, Cat. #IB00111).
This nuclear receptor assay system utilizes proprietary non-human mammalian cells engineered to provide constitutive, high-level expression of Human PPARα. Because these cells incorporate a PPARα-responsive luciferase reporter gene, quantifying expressed luciferase activity provides a sensitive surrogate measure of PPARα activity in the treated cells. The primary application of this reporter assay system is in the screening of test samples to quantify any functional activity, either agonist or antagonist, that they may exert against human PPARα. […] Briefly, the reporter cells are dispensed into wells of the assay plate and then immediately dosed with test compounds. Following an overnight incubation, the treatment media are discarded and Luciferase Detection Reagent (LDR) is added. The intensity of light emission from the ensuing luciferase reaction provides a sensitive measure that is directly proportional to the relative level of PPARα activation in the reporter cells.

Glucocorticoid Receptor = biological target: T3, Glucocorticoid Receptor (Homo sapiens, UniProt P04150); assay: Target selectivity counterscreen, Glucocorticoid Receptor reporter assay; assay type: cell-based; conditions: receptor agonist at ~EC80
T3 construct: host or cells: engineered reporter cells of the kit
T3 sequence (P04150 1-777): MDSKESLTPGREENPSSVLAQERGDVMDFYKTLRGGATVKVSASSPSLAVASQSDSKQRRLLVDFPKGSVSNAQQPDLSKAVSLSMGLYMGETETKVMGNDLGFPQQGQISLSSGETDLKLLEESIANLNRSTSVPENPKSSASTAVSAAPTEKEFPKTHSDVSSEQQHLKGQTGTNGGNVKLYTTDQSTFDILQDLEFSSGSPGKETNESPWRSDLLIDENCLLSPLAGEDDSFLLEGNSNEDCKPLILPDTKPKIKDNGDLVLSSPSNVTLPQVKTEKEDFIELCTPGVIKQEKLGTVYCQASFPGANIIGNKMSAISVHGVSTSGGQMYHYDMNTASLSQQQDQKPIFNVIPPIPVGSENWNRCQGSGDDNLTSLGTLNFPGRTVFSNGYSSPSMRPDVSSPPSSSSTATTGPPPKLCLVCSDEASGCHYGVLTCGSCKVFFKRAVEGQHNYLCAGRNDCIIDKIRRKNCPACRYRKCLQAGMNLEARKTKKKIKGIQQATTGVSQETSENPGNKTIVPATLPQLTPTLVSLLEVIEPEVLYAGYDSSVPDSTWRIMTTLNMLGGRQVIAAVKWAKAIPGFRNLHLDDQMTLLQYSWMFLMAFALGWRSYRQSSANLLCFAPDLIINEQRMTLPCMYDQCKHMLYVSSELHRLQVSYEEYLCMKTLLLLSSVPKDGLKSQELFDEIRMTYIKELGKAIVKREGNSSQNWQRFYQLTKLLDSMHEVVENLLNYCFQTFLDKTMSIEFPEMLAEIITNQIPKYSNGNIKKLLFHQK
Description: as §1, §2

B16F10 melanoma cells = assay: In vivo cancer model: B16F10 model of pulmonary metastasis; parameters: species or system C57BL/6 mice; conditions: oral doses 0.3, 3 and 30 mg/kg daily, day 21, FIG. 1
Description: In Vivo Cancer Model: B16F10 Model of Pulmonary Metastasis
B16F10 cells were cultured in standard growth media, harvested when approximately 50% confluent and injected into C57BL/6 mice via the tail vein (50,000 cells per mouse in 200 μL). Mice were treated daily with test compound. On day 21, mice were euthanized. Lungs were harvested and placed into Fekete's solution overnight to facilitate visualization of the tumors. Black nodules were enumerated.
Statistics were performed by ANOVA with Dunnett's Multiple Comparison Test post-hoc to determine statistical differences from vehicle treatment group. * denotes P<0.05, while *** denotes P<0.001.

## CCOc1ccc(-c2cccc(CCCc3nn(Cc4ccc(C(C)(C)C)cc4)c(=O)n3CC)c2)cc1CC(=O)O [Example 6, 2-(3′-(3-(1-(4-(tert-Butyl)benzyl)-4-ethyl-5-oxo-4,5-dihydro-1H-1,2,4-triazol-3-yl)propyl)-4-ethoxy-[1,1′-biphenyl]-3-yl)acetic acid]
PPAR beta/delta
  IC50: 13.3 µM
Human PPARα; antagonist activity, luciferase reporter cells, overnight incubation, read-out: Human PPARα Reporter Assay-Luciferase IC50
  IC50: 0.058 µM
Human PPARα; counterscreen assay results table, read-out: PPAR alpha IC50
  IC50: 0.058 µM
Glucocorticoid Receptor
  IC50: 18.2 µM
B16F10 melanoma cells
  metastasis of B16F10 melanoma cells to the lung (black nodules enumerated): inhibition of metastasis
